Measured values taken from patent publication US4404209A, “Analgesic mixture of nalbuphine and sulindac” (E. I. Du Pont de Nemours and Company, priority 1982, dated 1983).
Read-outs that look alike come from different tables or passages of the source.

System: phenyl-p-benzoquinone induced writhing in mice
Details: oral; for % mice blocked: 40 min
Description: The phenyl-p-benzoquinone induced writhing test in mice [H. Blumberg et al., Proc. Soc. […] The method simply consists of reading the % ED50 DOSE for each dose ratio on the best fit regression analysis curve from the mouse isobologram, multiplying each component by its effective species dose, and then forming the ratio of the amount of nalbuphine to sulindac. […] [E. W. Pelikan, The Pharmacologist, 1, 73 (1959).]
The mixture is sonicated at 150 watts for 1-2 minutes with an ultrasound system, then shaken for two hours at 280 oscillations/minute with 15-20 gm of glass beads. The resultant suspension contains 16 mg/ml of sulindac; all dosing suspensions are prepared by dilution of the stock suspension with the Methocel®/Tween 80® vehicle; the vehicle control is Methocel®/Tween 80®. All suspensions are prepared fresh daily.
Each mouse is used only once, then discarded.
In order to study the interaction between nalbuphine and sulindac, 5 precise dosage ratios of nalbuphine hydrochloride and sulindac are selected.

Oc1ccc2c3c1O[C@H]1[C@@H](O)CC[C@@]4(O)[C@@H](C2)N(CC2CCC2)CC[C@]314 [Nalbuphine, (-)-17-(cyclobutylmethyl)-4,5α-epoxymorphinan-3,6α,14-triol]
% mice blocked (nalbuphine HCl 5.45 mg/kg, sulindac 0): 16.7%
% mice blocked (nalbuphine HCl 10.9 mg/kg, sulindac 0): 40.0%
% mice blocked (nalbuphine HCl 21.8 mg/kg, sulindac 0): 36.7%
% mice blocked (nalbuphine HCl 43.6 mg/kg, sulindac 0): 63.3%
% mice blocked (nalbuphine HCl 87.2 mg/kg, sulindac 0): 90.0%
ED50 at 40 min, nalbuphine HCl (95% confidence limits) (mouse, nalbuphine HCl dose, alone or as component of the fixed-ratio combination): 30.8 mg/kg

CC1=C(CC(=O)O)c2cc(F)ccc2/C1=C\c1ccc([S+](C)[O-])cc1 (centres unmarked) [Sulindac, (Z)-5-fluoro-2-methyl-1-{[4-(methylsulfinyl)phenyl]methylene}-1H-indene-3-acetic acid]
% mice blocked (nalbuphine HCl 0, sulindac 4.75 mg/kg): 20.0%
% mice blocked (nalbuphine HCl 0, sulindac 9.5 mg/kg): 20.0%
% mice blocked (nalbuphine HCl 0, sulindac 19.0 mg/kg): 46.7%
% mice blocked (nalbuphine HCl 0, sulindac 38.0 mg/kg): 96.7%
ED50 at 40 min, sulindac (95% confidence limits) (mouse, sulindac dose, alone or as component of the fixed-ratio combination): 21.2 mg/kg
